In one assay the target is T1, Jak1 (Homo sapiens, UniProt P23458).
T1 construct: endogenous in cells; host or cells: TF1 cells
Nature of the assay: Jak1 (PSTAT3 TF1) alpha screen assay: inhibition of IL-6 induced phosphorylation of STAT3 in TF1 cells. The settings on record: calculated from tabulated EC50 data (Jak1 / Tyk2). It counts as cell-based. The procedure, abridged:
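IL-6-starved TF1 cells were preincubated 30 min at 37 °C with compound (top final 25 μM, 8-point 1:5 series), then stimulated with IL-6 (100 ng/mL final) for 30 min at 37 °C. Lysates were read for pSTAT3 (Tyr705) by AlphaScreen SureFire. EC50 from percent-activity dose-response curves.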

The next assay has as its target T2, Jak2 (Homo sapiens, UniProt O60674).
T2 construct: Cell Type: UT7 cells engineered to express the erythropoietin (EPO) receptor; endogenous in cells; host or cells: UT7 cells engineered to express the EPO receptor
As to the kind of experiment: Jak2 (PSTATS UT7) alpha screen assay: inhibition of EPO induced phosphorylation of STAT5 in UT7 cells. Type of assay: cell-based. The settings on record: calculated from tabulated EC50 data (Jak2 / Tyk2). On the procedure:
3. JAK2 (PSTATS UT7) ALPHA SCREEN ASSAY
Erythropoietin (EPO) is known to transduce its signal through EPO receptor via Jak2. Activity against Jak2 was therefore measured by determining inhibition of EPO induced phosphorylation of STATS in UT7 cells. […] Materials
Cell Type: UT7 cells engineered to express the erythropoietin (EPO) receptor; Culture Medium: Dulbecco's Modified Eagle Medium (DMEM) with 2 mM L-glutamine, 10 mM hydroxyethyl piperazineethanesulfonic acid (HEPES), 10% heat-inactivated fetal bovine serum (FBS) and Stock EPO (5000U in 250 uL, need 5U/mL, so add 250 μL to 1L of media); Assay Medium: 5% FBS ultra-low IgG and 1% Pen/Strep. Compounds were made-up in 100% dimethyl sulfoxide (DMSO).
Day One - Starve Cells: 4 Flasks for one 384 plate (spin down @1000 rpm for 10 minutes and add DMEM with no EPO).
Day Two—Compound Dilutions:
i. Manual 8-point 1:3 dilution curve: 5 mM top concentration dispensed in row A of a
Corning 96-well polypropylene plate, columns 2-12. DMSO dispensed in position A01 for low and high controls. Compounds were serially diluted 1:3 by adding 10 μL stock to 20 μL DMSO down the plate.
ii. Media dilution of compounds: Serially diluted compounds were diluted 1:50 in assay medium by adding 4 μL compound to 196 μL assay medium in a Corning 96-well polypropylene plate.
384 Alpha Screen Plate Set up: Transferred 2.5 μL/well of compound solution from last dilution plate. Replicates were vertical, so that one column of the 96-well dilution plate goes into one column on the 384-well plate twice. Plated 1×10^5 starved cells/well in 5μL. Washed cells in 10 mL Hank's balanced salt solution (HBSS) after spinning down. Counted live cells. Multiplied by dilution factor and 10,000 (constant) to get the concentration of viable cells. Multiplied by volume of cells to get the total number of live cells. Divided by 20,000,000 cells/mL to get the volume needed. Subtracted the original volume to get the volume to be added to get the final concentration of cells. Mixed in reservoir if needed, ensuring that all cell clumps are broken up (if not broken up, they were removed from the suspension). Cells were plated at 5 μL/well in gray Alpha Screen 384-well plate. Spinned the plate to bring the contents to the bottom of the wells at 400 rpm for 2 minutes. Top final compound concentration: 25 μM. Sealed with adhesive and tapped gently. Incubated cells at 37° C. for 30 minutes.
c. EPO Stimulation (p STATS)
Once cells were in incubator, immediately prepared working stock of EPO (1 nM final assay concentration). EPO stock=2860 nM of sterile filtered liquid in sodium citrate buffer (1 liter of ddH2O containing 5.9 g of sodium citrate, 5.8 g of sodium chloride and 0.06 g of citric acid). Diluted 1:22.72 by adding 4.44 stock EPO to 95.6 pi assay media, then dilute again […] depending on how much volume is needed for the assay plates. Used assay medium to bring to volume. Added 2.5 μL EPO to each well. Spinned plate at 400 rpm briefly; tap the plate gently before covering with an adhesive seal. Cells were incubated at 37° C. for 20 minutes.
Added 2.5 μL of 5X Lysis buffer to each well. Spinned plate at 400 rpm briefly. Incubated at room temperature (on orbital shaker) for 10 minutes.
e. Protein (A) Acceptor Beads Preparation: (Light sensitive)
Phosphorylated Signal Transducer and Activator of Transcription 5 (pSTAT5) was quantified using the PerkinElmer SureFire pSTATS (Tyrosine 694/699) Assay. Calculated total volume needed (wells×15 μL×30%). Divided total volume by 5 to get volume of activation buffer. Subtracted volume of activation buffer from total volume and divide by 40 to get volume of acceptor beads (add last). Total volume - acceptor bead volume - activation buffer to get volume of reaction buffer. Added 15 μL to each well and covered with foil. Shaked on orbital shaker for 2 hours at 500 rpm.
f. Streptavidin Donor Beads Preparation:
Calculated total volume needed (wells×6μL×30%). […]

Molecules are shown by their SMILES.

T1 sequence (P23458 whole entry): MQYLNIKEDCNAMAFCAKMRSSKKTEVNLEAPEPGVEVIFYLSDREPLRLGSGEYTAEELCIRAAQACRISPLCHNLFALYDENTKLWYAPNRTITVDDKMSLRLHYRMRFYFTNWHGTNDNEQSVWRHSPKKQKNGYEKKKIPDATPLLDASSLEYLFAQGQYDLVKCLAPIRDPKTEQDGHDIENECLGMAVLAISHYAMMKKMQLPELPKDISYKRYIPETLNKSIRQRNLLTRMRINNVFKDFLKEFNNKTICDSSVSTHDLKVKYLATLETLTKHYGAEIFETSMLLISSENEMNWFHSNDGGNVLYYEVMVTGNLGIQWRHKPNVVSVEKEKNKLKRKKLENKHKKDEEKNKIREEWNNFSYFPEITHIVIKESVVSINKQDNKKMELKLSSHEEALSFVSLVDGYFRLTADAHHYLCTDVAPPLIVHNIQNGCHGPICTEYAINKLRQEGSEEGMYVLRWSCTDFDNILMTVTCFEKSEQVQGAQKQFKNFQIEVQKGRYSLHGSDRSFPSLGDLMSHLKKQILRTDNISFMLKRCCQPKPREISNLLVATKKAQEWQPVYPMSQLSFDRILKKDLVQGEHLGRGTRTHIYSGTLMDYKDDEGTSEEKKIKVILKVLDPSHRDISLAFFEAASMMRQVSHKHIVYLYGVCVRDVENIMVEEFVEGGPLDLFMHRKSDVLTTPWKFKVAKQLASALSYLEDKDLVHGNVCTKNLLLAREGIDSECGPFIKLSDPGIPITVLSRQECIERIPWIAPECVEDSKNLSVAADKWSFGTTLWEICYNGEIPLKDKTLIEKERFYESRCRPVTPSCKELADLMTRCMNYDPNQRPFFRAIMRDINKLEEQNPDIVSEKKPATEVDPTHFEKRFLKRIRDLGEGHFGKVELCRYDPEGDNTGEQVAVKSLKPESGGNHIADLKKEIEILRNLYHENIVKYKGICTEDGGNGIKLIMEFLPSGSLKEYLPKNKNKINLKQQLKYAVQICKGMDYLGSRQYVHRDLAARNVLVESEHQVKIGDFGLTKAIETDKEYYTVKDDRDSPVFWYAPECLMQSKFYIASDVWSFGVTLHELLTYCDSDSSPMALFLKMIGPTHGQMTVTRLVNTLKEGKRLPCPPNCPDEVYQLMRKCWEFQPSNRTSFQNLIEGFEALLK
T2 sequence (O60674 whole entry): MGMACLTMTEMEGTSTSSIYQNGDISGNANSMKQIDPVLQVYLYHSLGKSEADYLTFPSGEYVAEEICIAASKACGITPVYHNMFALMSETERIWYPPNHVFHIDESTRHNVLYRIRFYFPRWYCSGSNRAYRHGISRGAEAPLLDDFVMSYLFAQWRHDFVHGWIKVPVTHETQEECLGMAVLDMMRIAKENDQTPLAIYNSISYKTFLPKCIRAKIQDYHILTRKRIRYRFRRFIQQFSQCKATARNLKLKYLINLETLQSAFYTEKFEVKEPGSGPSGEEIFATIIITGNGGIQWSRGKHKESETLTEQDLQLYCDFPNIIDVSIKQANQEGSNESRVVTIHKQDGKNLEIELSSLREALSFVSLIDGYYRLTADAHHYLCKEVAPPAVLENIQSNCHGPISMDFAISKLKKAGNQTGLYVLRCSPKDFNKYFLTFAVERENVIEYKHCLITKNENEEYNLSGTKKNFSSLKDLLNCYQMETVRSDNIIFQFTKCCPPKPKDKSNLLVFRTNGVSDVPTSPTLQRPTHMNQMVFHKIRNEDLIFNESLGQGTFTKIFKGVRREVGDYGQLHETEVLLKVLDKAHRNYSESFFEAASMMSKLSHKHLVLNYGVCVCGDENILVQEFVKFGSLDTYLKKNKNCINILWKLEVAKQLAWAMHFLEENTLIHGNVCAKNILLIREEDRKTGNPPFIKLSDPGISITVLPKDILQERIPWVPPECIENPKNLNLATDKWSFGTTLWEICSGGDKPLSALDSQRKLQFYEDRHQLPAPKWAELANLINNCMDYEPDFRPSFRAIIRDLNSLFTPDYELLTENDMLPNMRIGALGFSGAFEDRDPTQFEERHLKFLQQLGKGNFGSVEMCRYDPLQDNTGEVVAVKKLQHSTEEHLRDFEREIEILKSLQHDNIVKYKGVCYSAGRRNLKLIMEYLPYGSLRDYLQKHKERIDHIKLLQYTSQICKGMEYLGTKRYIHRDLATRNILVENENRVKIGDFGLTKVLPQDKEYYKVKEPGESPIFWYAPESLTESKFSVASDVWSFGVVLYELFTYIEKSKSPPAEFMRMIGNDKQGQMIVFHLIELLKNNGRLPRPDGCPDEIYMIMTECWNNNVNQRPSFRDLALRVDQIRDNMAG

On to `CO[C@@]1(c2cc(C(F)F)cc(-c3cn(C)c4cnc(NC(=O)CO)cc34)n2)CCOC1` [Example 26, (R)-N-(3-(4-(difluoromethyl)-6-(3-methoxytetrahydrofuran-3-yl)pyridin-2-yl)-1-methyl-1H-pyrrolo[2,3-c]pyridin-5-yl)-2-hydroxyacetamide], for which the “Tyk2 selectivity over Jak1” value at Jak1 is >500-fold. In addition, on Jak2, the “Tyk2 selectivity over Jak2” value is >500-fold.
With `CO[C@@]1(c2cc(OC(F)F)cc(-c3cn(C)c4cnc(NC(C)=O)cc34)n2)CCOC1` [Example 22.2, (R)-N-(3-(4-(difluoromethoxy)-6-(3-methoxytetrahydrofuran-3-yl)pyridin-2-yl)-1-methyl-1H-pyrrolo[2,3-c]pyridin-5-yl)acetamide], the “Tyk2 selectivity over Jak1” value on Jak1 was 393-fold. The “Tyk2 selectivity over Jak2” value at Jak2 is >281-fold.
On to `CC[C@@]1(c2cccc(-c3cn(C)c4cnc(NC(N)=O)cc34)n2)CCOC1` [Example 3.2, (S)-1-(3-(6-(3-ethyltetrahydrofuran-3-yl)pyridin-2-yl)-1-methyl-1H-pyrrolo[2,3-c]pyridin-5-yl)urea], for which the “Tyk2 selectivity over Jak1” value at Jak1 is listed as 243-fold. Further, the “Tyk2 selectivity over Jak2” value at Jak2 is >1786-fold.
The like results for `CO[C@@]1(c2cc(OCCO)cc(-c3cn(C)c4cnc(NC(C)=O)cc34)n2)CCOC1` [Example 10, (R)-N-(3-(4-(2-Hydroxyethoxy)-6-(3-methoxytetrahydrofuran-3-yl)pyridin-2-yl)-1-methyl-1H-pyrrolo[2,3-c]pyridin-5)-ypacetamide] were, in that order, 297-fold and >275-fold.
The like results for `COCc1cc(-c2cn(C)c3cnc(NC(=O)CO)cc23)nc([C@]2(OC)CCOC2)c1` [Example 24, (R)-2-hydroxy-N-(3-(4-(methoxymethyl)-6-(3-methoxytetrahydrofuran-3-yl)pyridin-2-yl)-1-methyl-1H-pyrrolo[2,3-c]pyridin-5-yl)acetamide] were, in that order, >1087-fold and >272-fold.
On the same counts, the results for `Cn1cc(-c2cncc([C@]3(C)CCOC3)n2)c2cc(NC(N)=O)ncc21` [Example 1b.5, (S)-1-(1-methyl-3-(6-(3-methyltetrahydrofuran-3-yl)pyrazin-2-yl)-1H-pyrrolo[2,3-c]pyridin-5-yl)urea] are 83-fold and >1389-fold.
On to `CO[C@@]1(c2cc(OCC[C@H](C)O)cc(-c3cn(C)c4cnc(NC(C)=O)cc34)n2)CCOC1` [Example 9, N-(3-(4-((S)-3-Hydroxybutoxy)-6-((R)-3-methoxytetrahydrofuran-3-yl)pyridin-2-yl)-1-methyl-1H-pyrrolo[2,3-c]pyridin-5-yl)acetamide], for which, on Jak1, the “Tyk2 selectivity over Jak1” value is recorded as 494-fold. The “Tyk2 selectivity over Jak2” value on Jak2 is >294-fold.
`COCCOc1cc(-c2cn(C)c3cnc(NC(C)=O)cc23)nc([C@]2(CO)CCOC2)c1` [Example 22.8, (S)-N-(3-(6-(3-(hydroxymethyl)tetrahydrofuran-3-yl)-4-(2-methoxyethoxy)pyridin-2-yl)-1-methyl-1H-pyrrolo[2,3-c]pyridin-5-yl)acetamide]: on Jak1, the “Tyk2 selectivity over Jak1” value is 103-fold. Further, the “Tyk2 selectivity over Jak2” value on Jak2 was >136-fold.
On the same counts, the results for `CO[C@H](C)COc1cc(-c2cn(C)c3cnc(NC(C)=O)cc23)nc([C@]2(OC)CCOC2)c1` [Example 22.10, N-(3-(4-((R)-2-methoxypropoxy)-6-((R)-3-methoxytetrahydrofuran-3-yl)pyridin-2-yl)-1-methyl-1H-pyrrolo[2,3-c]pyridin-5-yl)acetamide] are >272-fold and >272-fold.
As for `CO[C@@]1(c2cccc(-c3cn(C)c4cnc(NC(N)=O)cc34)n2)CCOC1` [Example 1, (R)-1-(3-(6-(3-Methoxytetrahydrofuran-3-yl)pyridin-2-yl)-1-methyl-1H-pyrrolo[2,3-c]pyridin-5-yl)urea], the “Tyk2 selectivity over Jak1” value at Jak1 is listed as 92-fold. In addition, on Jak2, the “Tyk2 selectivity over Jak2” value is on record as >424-fold.
The like results for `CO[C@@]1(c2cccc(-c3cn([C@@H]4CC4(F)F)c4cnc(NC(N)=O)cc34)n2)CCOC1` [Example 1.2, 1-(1-((R)-2,2-difluorocyclopropyl)-3-(6-((R)-3-methoxytetrahydrofuran-3-yl)pyridin-2-yl)-1H-pyrrolo[2,3-c]pyridin-5-yl)urea] were, in that order, 300-fold and >556-fold.
In the case of `CO[C@@]1(c2cc(O[C@@H](C)CCO)cc(-c3cn(C)c4cnc(NC(C)=O)cc34)n2)CCOC1` [Example 14.4, N-(3-(4-(((S)-4-hydroxybutan-2-yl)oxy)-6-((R)-3-methoxytetrahydrofuran-3-yl)pyridin-2-yl)-1-methyl-1H-pyrrolo[2,3-c]pyridin-5-yl)acetamide], at Jak1, the “Tyk2 selectivity over Jak1” value is listed as 470-fold. Besides, on Jak2, the “Tyk2 selectivity over Jak2” value is on record as >187-fold.
On to `Cn1cc(-c2cncc([C@@]3(C)CCOC3)n2)c2cc(NC(N)=O)ncc21` [Example 1b.6, (R)-1-(1-methyl-3-(6-(3-methyltetrahydrofuran-3-yl)pyrazin-2-yl)-1H-pyrrolo[2,3-c]pyridin-5-yl)urea], for which the “Tyk2 selectivity over Jak1” value at Jak1 is 22-fold. Also, the “Tyk2 selectivity over Jak2” value at Jak2 was >128-fold.
Turning to `COCc1cc(-c2cn(C)c3cnc(NC(C)=O)cc23)nc([C@]2(CO)CCOC2)c1` [Example 22, (S)-N-(3-(6-(3-(Hydroxymethyl)tetrahydrofuran-3-yl)-4-(methoxymethyl)pyridin-2-yl)-1-methyl-1H-pyrrolo[2,3-c]pyridin-5-yl)acetamide], the “Tyk2 selectivity over Jak1” value on Jak1 was 72-fold. Also, the “Tyk2 selectivity over Jak2” value on Jak2 is given as >171-fold.
Regarding `COCc1cc(-c2cn(C)c3cnc(NC(N)=O)cc23)nc([C@]2(OC)CCOC2)c1` [Example 3, (R)-1-(3-(4-(Methoxymethyl)-6-(3-methoxytetrahydrofuran-3-yl)pyridin-2-yl)-1-methyl-1H-pyrrolo[2,3-c]pyridin-5-yl)urea], at Jak1, the “Tyk2 selectivity over Jak1” value is listed as 514-fold. Also, the “Tyk2 selectivity over Jak2” value at Jak2 is recorded as >714-fold.
For the molecule `CO[C@@]1(c2cc(C)cc(-c3cn(C)c4cnc(NC(N)=O)cc34)n2)CCOC1` [Example 1b.2, (R)-1-(3-(6-(3-methoxytetrahydrofuran-3-yl)-4-methylpyridin-2-yl)-1-methyl-1H-pyrrolo[2,3-c]pyridin-5-yl)urea], the “Tyk2 selectivity over Jak1” value on Jak1 was 840-fold. Moreover, the “Tyk2 selectivity over Jak2” value at Jak2 is >1000-fold.
In the case of `CO[C@@]1(c2cc(C(F)F)cc(-c3cn(C)c4cnc(NC(C)=O)cc34)n2)CCOC1` [Example 2.8, (R)-N-(3-(4-(difluoromethyl)-6-(3-methoxytetrahydrofuran-3-yl)pyridin-2-yl)-1-methyl-1H-pyrrolo[2,3-c]pyridin-5-yl)acetamide], the “Tyk2 selectivity over Jak1” value on Jak1 is 405-fold. Further, on Jak2, the “Tyk2 selectivity over Jak2” value is on record as >595-fold.

These data come from patent publication US10508113B2, “Inhibitors of tyrosine kinase 2 mediated signaling” (AbbVie Inc., priority 2018, dated 2019).
